Activity calls are given as the source filed them.
Assays:
[1] = molecular target: Polyadenylate-binding protein 1 (Homo sapiens, UniProt P11940); experiment: PABP inhibition in translation initiation, SAR follow-up (AID 435018); format: functional
[2] = molecular target: Eukaryotic translation initiation factor 4H (Homo sapiens, UniProt Q15056); experiment: inhibitors of translation initiation factor eIF4H – SAR follow-up (AID 435011); format: functional
CAAX prenyl protease 2 = molecular target: T1, CAAX prenyl protease 2 (Saccharomyces cerevisiae S288c, UniProt Q03530); format: biochemical
T1 sequence (Q03530 whole entry): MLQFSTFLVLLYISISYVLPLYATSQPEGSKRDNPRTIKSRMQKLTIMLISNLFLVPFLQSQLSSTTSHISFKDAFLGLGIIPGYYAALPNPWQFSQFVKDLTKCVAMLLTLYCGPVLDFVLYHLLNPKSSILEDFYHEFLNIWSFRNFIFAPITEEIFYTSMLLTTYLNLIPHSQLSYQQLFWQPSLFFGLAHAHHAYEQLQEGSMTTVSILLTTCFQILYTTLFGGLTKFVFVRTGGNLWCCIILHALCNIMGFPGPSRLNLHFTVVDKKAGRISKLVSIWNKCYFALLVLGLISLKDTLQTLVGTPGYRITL

[3] = molecular target: T2, Bifunctional protein GlmU (Mycobacterium tuberculosis, UniProt P9WMN3); experiment: Inhibitors of Mycobacterial Glucosamine-1-phosphate acetyl transferase (GlmU). Secondary screen.; design: species or system Mycobacterium tuberculosis H37Rv
T2 sequence (P9WMN3 whole entry): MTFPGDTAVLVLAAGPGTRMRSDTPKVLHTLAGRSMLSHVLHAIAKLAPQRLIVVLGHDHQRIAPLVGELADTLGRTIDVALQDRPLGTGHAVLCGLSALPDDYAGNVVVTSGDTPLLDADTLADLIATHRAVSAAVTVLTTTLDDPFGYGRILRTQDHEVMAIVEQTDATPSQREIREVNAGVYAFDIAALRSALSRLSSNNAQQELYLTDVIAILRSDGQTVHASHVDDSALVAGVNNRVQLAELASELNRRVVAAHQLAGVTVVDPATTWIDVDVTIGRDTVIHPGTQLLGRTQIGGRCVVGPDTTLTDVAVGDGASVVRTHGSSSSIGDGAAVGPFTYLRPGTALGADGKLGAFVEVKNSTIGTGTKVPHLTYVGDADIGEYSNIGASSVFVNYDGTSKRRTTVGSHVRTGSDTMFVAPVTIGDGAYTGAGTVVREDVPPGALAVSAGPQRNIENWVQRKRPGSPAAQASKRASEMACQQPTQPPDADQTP

[4] = molecular target: T3, Carboxy-terminal domain RNA polymerase II polypeptide A small phosphatase 1 (Homo sapiens, UniProt Q9GZU7); experiment: CTDSP1 inhibitors, concentration-response, biochemical, absorbance readout, ultra-high-throughput screen actives (AID 540297); format: functional
T3 sequence (Q9GZU7 whole entry): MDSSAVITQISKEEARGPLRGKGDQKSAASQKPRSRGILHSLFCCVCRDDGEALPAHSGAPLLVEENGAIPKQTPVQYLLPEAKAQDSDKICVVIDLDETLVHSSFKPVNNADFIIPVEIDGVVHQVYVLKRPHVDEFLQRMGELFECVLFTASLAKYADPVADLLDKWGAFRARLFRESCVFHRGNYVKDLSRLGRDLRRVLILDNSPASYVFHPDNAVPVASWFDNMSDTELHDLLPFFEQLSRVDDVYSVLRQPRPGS

Large T antigen = Large T antigen (Simian virus 40, UniProt P03070); format: functional, Betapolyomavirus macacae;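 further: Confirmatory-stage PubChem screen for compounds that inhibit SV40 T antigen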
Chain of Large T antigen (P03070 whole entry): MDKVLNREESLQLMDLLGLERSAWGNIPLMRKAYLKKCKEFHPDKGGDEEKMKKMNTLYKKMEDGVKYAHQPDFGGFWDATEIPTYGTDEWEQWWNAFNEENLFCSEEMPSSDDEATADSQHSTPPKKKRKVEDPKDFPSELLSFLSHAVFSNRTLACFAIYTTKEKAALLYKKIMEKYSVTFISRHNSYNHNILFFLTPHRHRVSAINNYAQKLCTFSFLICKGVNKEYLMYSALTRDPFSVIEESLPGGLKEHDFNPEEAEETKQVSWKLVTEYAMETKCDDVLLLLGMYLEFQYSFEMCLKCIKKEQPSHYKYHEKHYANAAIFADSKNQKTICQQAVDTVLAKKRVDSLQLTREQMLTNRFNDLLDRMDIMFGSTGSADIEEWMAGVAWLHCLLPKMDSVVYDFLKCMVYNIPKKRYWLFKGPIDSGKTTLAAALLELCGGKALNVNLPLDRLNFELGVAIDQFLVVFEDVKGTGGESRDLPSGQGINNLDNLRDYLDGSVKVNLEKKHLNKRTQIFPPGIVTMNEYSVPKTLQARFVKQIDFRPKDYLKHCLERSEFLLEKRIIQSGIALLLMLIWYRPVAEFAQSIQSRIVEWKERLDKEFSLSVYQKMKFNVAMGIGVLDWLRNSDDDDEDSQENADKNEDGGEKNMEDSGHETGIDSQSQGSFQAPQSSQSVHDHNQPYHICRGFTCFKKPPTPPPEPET

Genome polyprotein = Genome polyprotein (dengue virus type 2, UniProt P29990); experiment: flavivirus cap methylation enzyme inhibition – biochemical, confirmation dose response, primary screen (AID 588689); format: functional
Chain of Genome polyprotein (P29990 2492-3391 limits assumed): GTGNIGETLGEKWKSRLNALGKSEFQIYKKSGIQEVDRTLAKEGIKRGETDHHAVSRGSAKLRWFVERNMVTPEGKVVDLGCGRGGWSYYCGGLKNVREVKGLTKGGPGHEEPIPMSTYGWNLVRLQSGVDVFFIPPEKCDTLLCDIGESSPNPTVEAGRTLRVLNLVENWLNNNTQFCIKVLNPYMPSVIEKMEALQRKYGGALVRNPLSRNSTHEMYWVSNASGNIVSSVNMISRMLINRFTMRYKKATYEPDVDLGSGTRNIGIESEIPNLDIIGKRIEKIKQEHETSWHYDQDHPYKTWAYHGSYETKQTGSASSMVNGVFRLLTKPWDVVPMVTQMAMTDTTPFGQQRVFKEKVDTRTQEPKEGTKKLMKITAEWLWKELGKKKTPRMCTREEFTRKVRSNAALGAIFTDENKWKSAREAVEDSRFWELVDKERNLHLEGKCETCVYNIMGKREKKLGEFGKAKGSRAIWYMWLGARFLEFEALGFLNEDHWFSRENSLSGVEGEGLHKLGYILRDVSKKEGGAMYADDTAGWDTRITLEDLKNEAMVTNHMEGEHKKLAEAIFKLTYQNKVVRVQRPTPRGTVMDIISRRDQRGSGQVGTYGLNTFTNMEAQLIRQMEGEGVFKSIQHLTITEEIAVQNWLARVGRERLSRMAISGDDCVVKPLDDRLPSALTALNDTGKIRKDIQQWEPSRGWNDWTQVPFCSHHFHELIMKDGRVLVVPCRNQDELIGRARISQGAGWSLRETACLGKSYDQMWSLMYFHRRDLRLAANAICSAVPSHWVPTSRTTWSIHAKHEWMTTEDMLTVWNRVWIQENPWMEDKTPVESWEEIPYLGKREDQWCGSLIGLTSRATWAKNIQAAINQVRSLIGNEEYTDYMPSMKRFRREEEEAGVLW

[5] = Luminescence Cell-Based Dose Retest to Confirm Inhibitors of Cancer Stem Cells. [Related pubchem assays (depositor defined):AID2717, AID2721]; format: functional; conditions: Homo sapiens
Mucolipin-3 = molecular target: T4, Mucolipin-3 (Homo sapiens, UniProt Q8TDD5); experiment: Dose response cell-based high-throughput screening assay for agonists of the transient receptor potential channel ML3 (TRPML3). [Related pubchem assays: 1526, 1424, 1448 ]; format: functional
T4 sequence (Q8TDD5 whole entry): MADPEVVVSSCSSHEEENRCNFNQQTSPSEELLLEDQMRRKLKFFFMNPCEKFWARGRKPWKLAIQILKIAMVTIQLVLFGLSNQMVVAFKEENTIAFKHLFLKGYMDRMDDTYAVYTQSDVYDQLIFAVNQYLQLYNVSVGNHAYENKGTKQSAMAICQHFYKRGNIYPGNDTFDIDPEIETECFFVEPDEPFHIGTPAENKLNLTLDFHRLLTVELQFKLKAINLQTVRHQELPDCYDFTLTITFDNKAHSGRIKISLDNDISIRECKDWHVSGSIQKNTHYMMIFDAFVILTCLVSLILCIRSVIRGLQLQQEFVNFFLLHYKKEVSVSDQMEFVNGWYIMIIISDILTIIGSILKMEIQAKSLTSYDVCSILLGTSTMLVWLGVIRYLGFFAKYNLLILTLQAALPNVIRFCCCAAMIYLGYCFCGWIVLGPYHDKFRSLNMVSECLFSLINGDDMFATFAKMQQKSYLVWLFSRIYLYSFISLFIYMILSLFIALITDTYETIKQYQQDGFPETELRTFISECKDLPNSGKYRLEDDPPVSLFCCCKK

[6] = molecular target: Induced myeloid leukemia cell differentiation protein Mcl-1 (Homo sapiens, UniProt Q07820); format: functional
Chain of Induced myeloid leukemia cell differentiation protein Mcl-1 (Q07820 whole entry): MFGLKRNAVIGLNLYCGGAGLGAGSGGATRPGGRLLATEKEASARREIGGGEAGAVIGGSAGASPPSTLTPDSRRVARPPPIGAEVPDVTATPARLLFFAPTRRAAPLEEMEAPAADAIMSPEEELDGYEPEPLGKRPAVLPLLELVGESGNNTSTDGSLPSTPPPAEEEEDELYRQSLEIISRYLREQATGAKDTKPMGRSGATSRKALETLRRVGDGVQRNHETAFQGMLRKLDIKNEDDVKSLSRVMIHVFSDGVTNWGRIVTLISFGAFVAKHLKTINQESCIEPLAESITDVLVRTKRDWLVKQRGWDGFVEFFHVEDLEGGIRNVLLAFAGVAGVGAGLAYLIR

Ion channel NompC = Ion channel NompC (Danio rerio, UniProt Q7T1G6); experiment: Fluorescence counterscreen assay for TRPML3 agonists: dose response cell-based high-throughput screening assay to identify agonists of the transient receptor potential channel N1 (TRPN1). [Related pubchem assays: 1526, 1424, 1448 ]; format: functional
Chain of Ion channel NompC (Q7T1G6 whole entry): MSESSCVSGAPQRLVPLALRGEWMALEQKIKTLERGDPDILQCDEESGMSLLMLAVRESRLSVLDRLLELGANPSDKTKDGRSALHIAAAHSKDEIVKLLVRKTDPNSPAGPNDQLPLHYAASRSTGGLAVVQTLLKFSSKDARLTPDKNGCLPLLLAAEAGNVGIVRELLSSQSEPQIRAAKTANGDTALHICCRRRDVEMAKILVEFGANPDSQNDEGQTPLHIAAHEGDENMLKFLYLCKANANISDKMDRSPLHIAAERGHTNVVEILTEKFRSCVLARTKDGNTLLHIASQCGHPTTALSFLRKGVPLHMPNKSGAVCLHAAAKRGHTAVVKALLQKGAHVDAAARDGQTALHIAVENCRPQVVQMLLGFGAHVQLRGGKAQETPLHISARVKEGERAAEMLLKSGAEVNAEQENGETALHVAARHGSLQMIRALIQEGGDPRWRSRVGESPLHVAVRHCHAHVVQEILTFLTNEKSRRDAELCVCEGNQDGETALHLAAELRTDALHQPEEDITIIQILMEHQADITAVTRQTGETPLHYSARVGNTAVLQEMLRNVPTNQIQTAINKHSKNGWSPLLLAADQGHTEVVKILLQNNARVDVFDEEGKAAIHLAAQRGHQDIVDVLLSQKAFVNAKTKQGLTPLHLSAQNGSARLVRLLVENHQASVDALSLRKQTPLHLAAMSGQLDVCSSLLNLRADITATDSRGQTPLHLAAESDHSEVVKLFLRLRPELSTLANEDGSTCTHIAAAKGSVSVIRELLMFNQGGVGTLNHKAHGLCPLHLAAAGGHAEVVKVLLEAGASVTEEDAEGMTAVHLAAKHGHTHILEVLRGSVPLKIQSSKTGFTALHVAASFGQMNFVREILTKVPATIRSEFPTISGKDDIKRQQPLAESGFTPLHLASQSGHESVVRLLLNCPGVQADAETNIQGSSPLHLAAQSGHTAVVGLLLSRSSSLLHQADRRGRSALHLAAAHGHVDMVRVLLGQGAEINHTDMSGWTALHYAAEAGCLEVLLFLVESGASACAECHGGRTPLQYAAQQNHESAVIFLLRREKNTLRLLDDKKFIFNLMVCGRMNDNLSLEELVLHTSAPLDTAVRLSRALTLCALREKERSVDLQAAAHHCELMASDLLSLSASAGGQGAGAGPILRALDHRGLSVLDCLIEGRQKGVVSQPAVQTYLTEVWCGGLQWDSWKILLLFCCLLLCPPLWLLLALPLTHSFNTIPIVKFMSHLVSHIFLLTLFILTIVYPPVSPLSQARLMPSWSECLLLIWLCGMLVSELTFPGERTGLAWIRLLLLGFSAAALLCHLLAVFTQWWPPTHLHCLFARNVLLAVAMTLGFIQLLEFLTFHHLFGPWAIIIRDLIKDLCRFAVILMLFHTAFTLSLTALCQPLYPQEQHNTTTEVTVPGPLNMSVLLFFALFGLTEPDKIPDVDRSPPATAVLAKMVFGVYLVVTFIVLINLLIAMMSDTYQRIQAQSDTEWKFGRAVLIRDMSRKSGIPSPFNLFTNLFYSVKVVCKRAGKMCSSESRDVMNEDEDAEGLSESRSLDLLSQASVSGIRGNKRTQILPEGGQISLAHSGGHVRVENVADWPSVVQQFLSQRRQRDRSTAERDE

Chain of Polyadenylate-binding protein 1 (P11940 whole entry): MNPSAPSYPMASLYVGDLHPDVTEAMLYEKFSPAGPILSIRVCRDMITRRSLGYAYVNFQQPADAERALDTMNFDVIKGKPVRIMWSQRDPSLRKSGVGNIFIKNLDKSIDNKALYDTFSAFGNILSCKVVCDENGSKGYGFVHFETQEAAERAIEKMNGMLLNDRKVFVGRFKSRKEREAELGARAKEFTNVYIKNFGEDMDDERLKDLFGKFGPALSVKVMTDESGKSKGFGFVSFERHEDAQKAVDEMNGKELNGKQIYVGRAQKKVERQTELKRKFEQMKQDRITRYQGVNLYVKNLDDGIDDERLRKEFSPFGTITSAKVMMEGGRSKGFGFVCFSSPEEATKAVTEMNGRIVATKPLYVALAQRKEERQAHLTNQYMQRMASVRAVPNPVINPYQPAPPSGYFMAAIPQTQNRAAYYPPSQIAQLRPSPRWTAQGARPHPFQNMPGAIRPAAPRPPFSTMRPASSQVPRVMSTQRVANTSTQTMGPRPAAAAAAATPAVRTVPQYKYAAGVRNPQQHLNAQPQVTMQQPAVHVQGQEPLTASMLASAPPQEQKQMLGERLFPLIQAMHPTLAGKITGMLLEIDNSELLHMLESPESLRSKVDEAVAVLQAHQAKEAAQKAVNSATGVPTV

SMILES	IC50 [1]	IC50 [2]	EC50 (Mucolipin-3)	EC50 (Ion channel NompC)	also measured
COc1cc(/C=N/NC(=O)c2ccccc2)ccc1OCC(=O)Nc1ccc([N+](=O)[O-])cc1	49.5 µM (active)	2.74 µM (active)			
Cc1ccc(OCCn2c3ccccc3n3nc(C)c(=O)nc23)cc1					AC50 (CAAX prenyl protease 2): 6.85 µM (active)
O=C1NN(c2ccccc2)C(=O)/C1=C/c1ccc(-c2ccc(Cl)c(C(=O)O)c2)o1					IC50 [3]: 80.4 µM (active); IC50 [4]: 4.07 µM (active); IC50 (Large T antigen): 17.1 µM (active); IC50 (Genome polyprotein): 32.2 µM (active)
COc1ccc(NC(=O)C2CCCN2C(=O)Oc2ccccc2)cc1 (stereo not given)	> 100 µM (inactive)	> 100 µM (inactive)			
CCC1CCCCN1S(=O)(=O)c1ccc(S(=O)(=O)N(Cc2ccccn2)CC2CCCO2)cc1 (stereo not given)			1.81 µM (active)	> 29.9 µM (not active)	AC50 [5]: 2.4 µM (active); IC50 [6]: < 0.4 µM (not active)
O=S(=O)(NC1CCCCCC1)c1cccc2cccnc12			3.4 µM (active)	> 29.9 µM (not active)	

Reference: ChEMBL document CHEMBL1201862, “PubChem BioAssay data set” (2004)
